Test results as given in ChEMBL document CHEMBL5375952, “Discovery of Novel 8-Hydroxyquinoline Derivatives with Potent In Vitro and In Vivo Antifungal Activity” (J Med Chem, 2023).
≈ marks a conversion by molar mass, not a printed value.

Key:
[1] = test system: Candida albicans; assay: Antifungal activity against Candida albicans SC5314 assessed as fungal growth inhibition incubated for 48 hrs by broth microdilution method; assay type: functional
[2] = test system: Candida albicans; assay: Antifungal activity against Candida albicans 21 assessed as fungal growth inhibition incubated for 48 hrs by broth microdilution method; assay type: functional
[3] = test system: Candida albicans; assay: Antifungal activity against Candida albicans 22 assessed as fungal growth inhibition incubated for 48 hrs by broth microdilution method; assay type: functional
[4] = test system: Nakaseomyces glabratus; assay: Antifungal activity against Candida glabrata 201 assessed as fungal growth inhibition incubated for 48 hrs by broth microdilution method; assay type: functional
[5] = test system: Nakaseomyces glabratus; assay: Antifungal activity against Candida glabrata 202 assessed as fungal growth inhibition incubated for 48 hrs by broth microdilution method; assay type: functional
[6] = test system: Nakaseomyces glabratus; assay: Antifungal activity against Candida glabrata 205 assessed as fungal growth inhibition incubated for 48 hrs by broth microdilution method; assay type: functional
[7] = test system: Pichia kudriavzevii; assay: Antifungal activity against Candida krusei 68 assessed as fungal growth inhibition incubated for 48 hrs by broth microdilution method; assay type: functional
[8] = test system: Pichia kudriavzevii; assay: Antifungal activity against Candida krusei 69 assessed as fungal growth inhibition incubated for 48 hrs by broth microdilution method; assay type: functional
[9] = test system: Pichia kudriavzevii; assay: Antifungal activity against Candida krusei 477 assessed as fungal growth inhibition incubated for 48 hrs by broth microdilution method; assay type: functional
[10] = test system: Candida parapsilosis; assay: Antifungal activity against Candida parapsilosis 105 assessed as fungal growth inhibition incubated for 48 hrs by broth microdilution method; assay type: functional; details: Lodderomyces parapsilosis
[11] = test system: Candida parapsilosis; assay: Antifungal activity against Candida parapsilosis 107 assessed as fungal growth inhibition incubated for 48 hrs by broth microdilution method; assay type: functional; details: Lodderomyces parapsilosis
[12] = test system: Candida parapsilosis; assay: Antifungal activity against Candida parapsilosis 125 assessed as fungal growth inhibition incubated for 48 hrs by broth microdilution method; assay type: functional; details: Lodderomyces parapsilosis
[13] = test system: Candida tropicalis; assay: Antifungal activity against Candida tropicalis 176 assessed as fungal growth inhibition incubated for 48 hrs by broth microdilution method; assay type: functional
[14] = test system: Candida tropicalis; assay: Antifungal activity against Candida tropicalis 178 assessed as fungal growth inhibition incubated for 48 hrs by broth microdilution method; assay type: functional
[15] = test system: Candida tropicalis; assay: Antifungal activity against Candida tropicalis 184 assessed as fungal growth inhibition incubated for 48 hrs by broth microdilution method; assay type: functional
[16] = test system: Cryptococcus neoformans; assay: Antifungal activity against Cryptococcus neoformans 443 assessed as fungal growth inhibition incubated for 48 hrs by broth microdilution method; assay type: functional
[17] = test system: Cryptococcus neoformans; assay: Antifungal activity against Cryptococcus neoformans 444 assessed as fungal growth inhibition incubated for 48 hrs by broth microdilution method; assay type: functional
[18] = test system: Cryptococcus neoformans; assay: Antifungal activity against Cryptococcus neoformans 445 assessed as fungal growth inhibition incubated for 48 hrs by broth microdilution method; assay type: functional
[19] = test system: Aspergillus fumigatus; assay: Antifungal activity against Aspergillus fumigatus 023-12 assessed as fungal growth inhibition incubated for 48 hrs by broth microdilution method; assay type: functional
[20] = test system: Aspergillus fumigatus; assay: Antifungal activity against Aspergillus fumigatus A assessed as fungal growth inhibition incubated for 48 hrs by broth microdilution method; assay type: functional
[21] = test system: Aspergillus fumigatus; assay: Antifungal activity against Aspergillus fumigatus 7544 assessed as fungal growth inhibition incubated for 48 hrs by broth microdilution method; assay type: functional
[22] = Cytotoxicity against human Caco-2 cells assessed as cell growth inhibition incubated for 24 hrs by CCK8 assay; assay type: toxicity, cell-based

SMILES | MIC [1] [mg/L] | MIC [2] [mg/L] | MIC [3] [mg/L] | further results
O=C(Cc1ccccc1)NC(c1ccc(OC(F)F)cc1)c1ccc2cccnc2c1O (stereo not drawn) | 1 (≈ 2.3 µM) | 0.5 (≈ 1.15 µM) | 0.5 (≈ 1.15 µM) | –
CCN(CC)c1ccc(C(NC(=O)CCc2ccccc2)c2ccc3cccnc3c2O)cc1 (stereo not drawn) | 2 (≈ 4.41 µM) | 0.25 (≈ 0.551 µM) | 1 (≈ 2.2 µM) | –
CC(C)C(=O)NC(c1ccc(OC(F)(F)F)cc1)c1ccc2cccnc2c1O (stereo not drawn) | 0.5 (≈ 1.24 µM) | 1 (≈ 2.47 µM) | 1 (≈ 2.47 µM) | –
CCC(=O)NC(c1cccc([N+](=O)[O-])c1)c1ccc2cccnc2c1O (stereo not drawn) | 4 (≈ 11.4 µM) | 4 (≈ 11.4 µM) | 4 (≈ 11.4 µM) | –
CN(C)c1ccc(C(NC(=O)Cc2ccccc2)c2ccc3cccnc3c2O)cc1 (stereo not drawn) | 0.25 (≈ 0.608 µM) | 0.5 (≈ 1.22 µM) | 2 (≈ 4.86 µM) | –
CC(=O)NC(c1ccccc1Cl)c1ccc2cccnc2c1O (stereo not drawn) | 8 (≈ 24.5 µM) | 8 (≈ 24.5 µM) | 8 (≈ 24.5 µM) | –
Cc1ccc(C(NC(=O)CC(C)C)c2ccc3cccnc3c2O)cc1 (stereo not drawn) | 0.125 (≈ 0.359 µM) | 0.125 (≈ 0.359 µM) | 0.125 (≈ 0.359 µM) | MIC [4]: 0.125 mg/L (≈ 0.359 µM); MIC [5]: 0.125 mg/L (≈ 0.359 µM); MIC [6]: 0.125 mg/L (≈ 0.359 µM); MIC [7]: 0.125 mg/L (≈ 0.359 µM); MIC [8]: 0.125 mg/L (≈ 0.359 µM); MIC [9]: 0.125 mg/L (≈ 0.359 µM); MIC [10]: 0.032 mg/L (≈ 0.0918 µM); MIC [11]: 0.125 mg/L (≈ 0.359 µM); MIC [12]: 0.125 mg/L (≈ 0.359 µM); MIC [13]: 0.032 mg/L (≈ 0.0918 µM); MIC [14]: 0.032 mg/L (≈ 0.0918 µM); MIC [15]: 0.125 mg/L (≈ 0.359 µM); MIC [16]: 0.016 mg/L (≈ 0.0459 µM); MIC [17]: 0.016 mg/L (≈ 0.0459 µM); MIC [18]: 0.016 mg/L (≈ 0.0459 µM); MIC [19]: 0.25 mg/L (≈ 0.717 µM); MIC [20]: 0.5 mg/L (≈ 1.43 µM); MIC [21]: 0.5 mg/L (≈ 1.43 µM); IC50 at 24 h [22]: 32 mg/L (≈ 91.8 µM)
CC(C)C(=O)NC(c1ccc(Cl)cc1)c1ccc2cccnc2c1O (stereo not drawn) | 1 (≈ 2.82 µM) | 0.25 (≈ 0.705 µM) | 0.5 (≈ 1.41 µM) | –
CC(C)C(=O)NC(c1ccc(C(F)(F)F)cc1)c1ccc2cccnc2c1O (stereo not drawn) | 1 (≈ 2.57 µM) | 1 (≈ 2.57 µM) | 2 (≈ 5.15 µM) | –
CC(C)C(=O)NC(c1ccccc1Cl)c1ccc2cccnc2c1O (stereo not drawn) | 2 (≈ 5.64 µM) | 2 (≈ 5.64 µM) | 2 (≈ 5.64 µM) | –
CSc1ccc(C(NC(=O)Cc2ccccc2)c2ccc3cccnc3c2O)cc1 (stereo not drawn) | 1 (≈ 2.41 µM) | 2 (≈ 4.82 µM) | 4 (≈ 9.65 µM) | –
O=C(Cc1ccccc1)NC(c1ccc(Cl)cc1)c1ccc2cccnc2c1O (stereo not drawn) | 2 (≈ 4.96 µM) | 0.25 (≈ 0.621 µM) | 1 (≈ 2.48 µM) | –
CS(=O)(=O)c1ccc(C(NC(=O)Cc2ccccc2)c2ccc3cccnc3c2O)cc1 (stereo not drawn) | 2 (≈ 4.48 µM) | 1 (≈ 2.24 µM) | 2 (≈ 4.48 µM) | –
O=C(Cc1ccccc1)NC(c1ccc(OC(F)(F)F)cc1)c1ccc2cccnc2c1O (stereo not drawn) | 2 (≈ 4.42 µM) | 1 (≈ 2.21 µM) | 2 (≈ 4.42 µM) | –
CC(=O)NC(c1ccc(Cl)cc1Cl)c1ccc2cccnc2c1O (stereo not drawn) | 0.125 (≈ 0.346 µM) | 0.5 (≈ 1.38 µM) | 0.5 (≈ 1.38 µM) | –
COc1ccc(C(NC(=O)C(C)C)c2ccc3cccnc3c2O)cc1 (stereo not drawn) | 2 (≈ 5.71 µM) | 0.5 (≈ 1.43 µM) | 1 (≈ 2.85 µM) | –
CC(=O)NC(c1ccc2ccccc2c1)c1ccc2cccnc2c1O (stereo not drawn) | 0.25 (≈ 0.73 µM) | 0.5 (≈ 1.46 µM) | 0.125 (≈ 0.365 µM) | –
COc1ccc(C(NC(=O)CC(C)C)c2ccc3cccnc3c2O)cc1OC (stereo not drawn) | 0.5 (≈ 1.27 µM) | 0.5 (≈ 1.27 µM) | 0.5 (≈ 1.27 µM) | –
CC(C)C(=O)NC(c1ccc(Cl)c(Cl)c1)c1ccc2cccnc2c1O (stereo not drawn) | 1 (≈ 2.57 µM) | 0.25 (≈ 0.642 µM) | 1 (≈ 2.57 µM) | –
OCCN1CCN(C(c2ccccc2)c2ccc3cccnc3c2O)CC1 (stereo not drawn) | 1 (≈ 2.75 µM) | 1 (≈ 2.75 µM) | 1 (≈ 2.75 µM) | –
COc1ccccc1C(NC(=O)C(C)C)c1cc(Cl)c2cccnc2c1O (stereo not drawn) | > 64 | 64 (≈ 166 µM) | > 64 | –
O=C(Cc1ccccc1)NC(c1ccc(Br)cc1)c1ccc2cccnc2c1O (stereo not drawn) | 2 (≈ 4.47 µM) | 1 (≈ 2.24 µM) | 1 (≈ 2.24 µM) | –
COc1ccc(C(NC(C)=O)c2ccc3cccnc3c2O)c(OC)c1 (stereo not drawn) | 4 (≈ 11.4 µM) | 4 (≈ 11.4 µM) | 4 (≈ 11.4 µM) | –
